Experimental data from PubChem BioAssay AID2060505 (Molecular Pharmacology Branch, DTP, NCI, 2025).

Tested on: 633275-114-R-J1-PDC complex spheroids, viability
Experiment: Anticancer human tumor 633275-114-R-J1-PDC patient-derived endometrial adenocarcinoma cell line growth inhibition [GQUAD]
Conditions: for IC50: curve of first compound; for viability, T/C: stronger effect = lower value
From the text: DNA G-quadruplex Stabilizer Agents in Combinations in Complex Spheroids
A high-throughput screen of multi-cell type tumor spheroids was designed to identify active combinations of DNA G-quadruplex stabilizer agents and targeted small molecules. Complex spheroids include a stromal component modeled by human endothelial cells (HUVEC) and fibroblasts modeled by human mesenchymal stem cells (MSCs). The concentration ranges selected for each drug and investigational agent were based upon clinically achievable concentrations if the clinical Cmax of the agent was known.
Compounds. The drugs and investigational agents: pidnarulex (CX-5461; NSC782164), APTO-253 (NSC789042), BRACO-19 (NSC847499), peposertib (NSC802822), ceralasertib (NSC780249), elimusertib (NSC800525), camonsertib (NSC841442), AZD-1390 (NSC803789), olaparib (NSC753686), talazoparib (NSC767125), ART-558 (NSC835418), sotorasib (NSC818433), MRTX-1133 (NSC836407), SN-38 (NSC673596), topotecan (NSC609699), etoposide (NSC141540), doxorubicin (NSC123127), gemcitabine (NSC613327), 5-fluorouracil (NSC19893), paclitaxel (NSC125973), vemurafenib (NSC761431), panobinostat (NSC761190), R-306465 (JNJ-16241199; NSC773264), adavosertib (NSC754352), TP-3654 (NSC805149), carboplatin (NSC241240), KSQ-4279 (NSC840948), and staurosporine (NSC755774) were obtained from the National Cancer Institute (NCI) Developmental Therapeutics Program Chemical Repository (34). The FDA-approved anticancer drug set is available from the NCI Developmental Therapeutics Program. […] The stock solutions were prepared in dimethyl sulfoxide (DMSO, Sigma-Aldrich, St. Louis, MO, cat. D2650) at 800-fold the tested concentration and stored at -70 degrees C prior to their use. All drugs and investigational agents were tested over a range starting from a high concentration at or near the clinical Cmax and decreasing in half-log increments. If the clinical Cmax for an agent had not been determined, the highest concentration tested was 10 microM.
2.3 Cell Culture. All cells were maintained in an incubator at 37 degrees C and 5% CO2 with 95% humidity. The PDC lines were cultured according to standard operating procedures established by the NCI PDMR. All PDCs were thawed and cultured in Matrigel-coated flasks prepared with a working solution of 1X Ham's F-12 nutrient mix, without supplementation (Invitrogen, cat. 11765054), 100 U/mL penicillin-streptomycin (Invitrogen, cat. 15140122), and 2.5% Matrigel (Corning Inc., cat. 354248) for the first three passages. The 857933-349-R-J2-PDC line was cultured in 6C/Colon 1B media, which includes advanced DMEM/F-12 (Thermo Fisher Scientific, cat. 12634028), 10 mM HEPES (Thermo Fisher Scientific, cat. 15630080), 1X GlutaMAX supplement (Thermo Fisher Scientific, cat. 35050061), 0.1 mg/mL primocin (InvivoGen, cat. ant-pm-2), 10% defined fetal bovine serum, heat inactivated (HyClone Laboratories Inc., cat. SH30070.03HI), 50% L-WRN conditioned media (ATCC, cat. CRL-3276), 1.25 mM N-Acetyl-L-cysteine (Sigma-Aldrich, cat. A9165), 10 mM nicotinamide (Sigma-Aldrich, cat. N0636), 1X B-27 supplement (Thermo Fisher Scientific, cat. 17504044), 1X N-2 supplement (Thermo Fisher Scientific, cat. 17502048), 10 microM Y-27632 dihydrochloride (Tocris Bioscience, cat. 1254), and 50 ng/mL human EGF recombinant protein (Thermo Fisher Scientific, cat. PHG0311). The 485176-168-R4-J1-PDC line was cultured in Panc media, which includes all 6C/Colon 1B media components plus 100 ng/mL human FGF-10 (Thermo Fisher Scientific, cat. 100-26), 500 nM SB-431542 (Selleckchem, cat. S1067), and gastrin (Tocris, cat. 3006).
[…]

[1] = second compound 0.0316 µM, first compound 0.0316 µM
[2] = second compound 0.0316 µM, first compound 0.316 µM
[3] = second compound 0.1 µM, first compound 0.0316 µM
[4] = second compound 0.1 µM, first compound 0.316 µM
[5] = second compound 0.316 µM, first compound 0.0316 µM
[6] = second compound 0.316 µM, first compound 0.316 µM
[7] = second compound 1 µM, first compound 0.0316 µM
[8] = second compound 1 µM, first compound 0.316 µM
[9] = second compound 3.16 µM, first compound 0.0316 µM
[10] = second compound 3.16 µM, first compound 0.316 µM
[11] = second compound 10 µM, first compound 0.0316 µM
[12] = second compound 10 µM, first compound 0.316 µM
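Note: spheroids exposed to the agents for seven days.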
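Throughout, for viability, T/C: percent of DMSO vehicle control viability which is 100%.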

C=CC(=O)N1CCN(c2nc(=O)n(-c3c(C)ccnc3C(C)C)c3nc(-c4c(O)cccc4F)c(F)cc23)C(C)C1 (centres undefined) + CN(C)c1ccc(Nc2c3ccc(NC(=O)CCN4CCCC4)cc3nc3cc(NC(=O)CCN4CCCC4)ccc23)cc1
IC50 (second compound 0.0316 µM): > 10 µM | IC50 (second compound 0.1 µM): > 10 µM | IC50 (second compound 0.316 µM): > 10 µM | IC50 (second compound 1 µM): > 10 µM | IC50 (second compound 3.16 µM): > 10 µM | IC50 (second compound 10 µM): < 0.0316 µM | viability, T/C [1]: 109% | viability, T/C (second compound 0.0316 µM, first compound 0.1 µM): 88% | viability, T/C [2]: 94.9% | viability, T/C (second compound 0.0316 µM, first compound 1 µM): 92.5% | viability, T/C (second compound 0.0316 µM, first compound 3.16 µM): 106% | viability, T/C (second compound 0.0316 µM, first compound 10 µM): 81.8% | viability, T/C [3]: 98.1% | viability, T/C (second compound 0.1 µM, first compound 0.1 µM): 92% | viability, T/C [4]: 97.7% | viability, T/C (second compound 0.1 µM, first compound 1 µM): 92.6% | viability, T/C (second compound 0.1 µM, first compound 3.16 µM): 97.2% | viability, T/C (second compound 0.1 µM, first compound 10 µM): 76% | viability, T/C [5]: 92.8% | viability, T/C (second compound 0.316 µM, first compound 0.1 µM): 95.4% | viability, T/C [6]: 110% | viability, T/C (second compound 0.316 µM, first compound 1 µM): 110% | viability, T/C (second compound 0.316 µM, first compound 3.16 µM): 98.9% | viability, T/C (second compound 0.316 µM, first compound 10 µM): 76% | viability, T/C [7]: 95.5% | viability, T/C (second compound 1 µM, first compound 0.1 µM): 88.6% | viability, T/C [8]: 100% | viability, T/C (second compound 1 µM, first compound 1 µM): 97.5% | viability, T/C (second compound 1 µM, first compound 3.16 µM): 104% | viability, T/C (second compound 1 µM, first compound 10 µM): 65.2% | viability, T/C [9]: 84.2% | viability, T/C (second compound 3.16 µM, first compound 0.1 µM): 85.1% | viability, T/C [10]: 92.1% | viability, T/C (second compound 3.16 µM, first compound 1 µM): 84.5% | viability, T/C (second compound 3.16 µM, first compound 3.16 µM): 78.1% | viability, T/C (second compound 3.16 µM, first compound 10 µM): 51.3% | viability, T/C [11]: 34.3% | viability, T/C (second compound 10 µM, first compound 0.1 µM): 34.3% | viability, T/C [12]: 35.2% | viability, T/C (second compound 10 µM, first compound 1 µM): 41% | viability, T/C (second compound 10 µM, first compound 3.16 µM): 37.3% | viability, T/C (second compound 10 µM, first compound 10 µM): 15.4%

CC[C@@]1(O)C(=O)OCc2c1cc1n(c2=O)Cc2cc3c(CN(C)C)c(O)ccc3nc2-1 + CN(C)c1ccc(Nc2c3ccc(NC(=O)CCN4CCCC4)cc3nc3cc(NC(=O)CCN4CCCC4)ccc23)cc1
IC50 (second compound 0.0316 µM): 0.0715 µM | IC50 (second compound 0.1 µM): 0.073 µM | IC50 (second compound 0.316 µM): 0.0812 µM | IC50 (second compound 1 µM): 0.0582 µM | IC50 (second compound 3.16 µM): 0.0483 µM | IC50 (second compound 10 µM): < 0.000999 µM | viability, T/C (second compound 0.0316 µM, first compound 0.000999 µM): 96.1% | viability, T/C (second compound 0.0316 µM, first compound 0.00316 µM): 105% | viability, T/C (second compound 0.0316 µM, first compound 0.00999 µM): 98.3% | viability, T/C [1]: 75.2% | viability, T/C (second compound 0.0316 µM, first compound 0.0999 µM): 39.7% | viability, T/C [2]: 35.9% | viability, T/C (second compound 0.1 µM, first compound 0.000999 µM): 93.4% | viability, T/C (second compound 0.1 µM, first compound 0.00316 µM): 101% | viability, T/C (second compound 0.1 µM, first compound 0.00999 µM): 99% | viability, T/C [3]: 74.1% | viability, T/C (second compound 0.1 µM, first compound 0.0999 µM): 42% | viability, T/C [4]: 36% | viability, T/C (second compound 0.316 µM, first compound 0.000999 µM): 101% | viability, T/C (second compound 0.316 µM, first compound 0.00316 µM): 104% | viability, T/C (second compound 0.316 µM, first compound 0.00999 µM): 85.5% | viability, T/C [5]: 72.9% | viability, T/C (second compound 0.316 µM, first compound 0.0999 µM): 42.6% | viability, T/C [6]: 36.3% | viability, T/C (second compound 1 µM, first compound 0.000999 µM): 98% | viability, T/C (second compound 1 µM, first compound 0.00316 µM): 88.6% | viability, T/C (second compound 1 µM, first compound 0.00999 µM): 91.2% | viability, T/C [7]: 64.8% | viability, T/C (second compound 1 µM, first compound 0.0999 µM): 36.7% | viability, T/C [8]: 35% | viability, T/C (second compound 3.16 µM, first compound 0.000999 µM): 82.3% | viability, T/C (second compound 3.16 µM, first compound 0.00316 µM): 82% | viability, T/C (second compound 3.16 µM, first compound 0.00999 µM): 80.7% | viability, T/C [9]: 54% | viability, T/C (second compound 3.16 µM, first compound 0.0999 µM): 40.6% | viability, T/C [10]: 27% | viability, T/C (second compound 10 µM, first compound 0.000999 µM): 35.2% | viability, T/C (second compound 10 µM, first compound 0.00316 µM): 41.3% | viability, T/C (second compound 10 µM, first compound 0.00999 µM): 28.8% | viability, T/C [11]: 26.5% | viability, T/C (second compound 10 µM, first compound 0.0999 µM): 15.3% | viability, T/C [12]: 13.7%
